Experimental data: ChEMBL document CHEMBL2311352, “Discovery of 4-phenyl-2-phenylaminopyridine based TNIK inhibitors” (Bioorg Med Chem Lett, 2013)

Key:
[1] = target: Tyrosine-protein kinase SYK (Homo sapiens) (UniProt P43405); experiment: Inhibition of SYK (unknown origin) at 1 uM
[2] = target: Serine/threonine-protein kinase Nek1 (Homo sapiens) (UniProt Q96PY6); experiment: Inhibition of NEK1 (unknown origin) at 1 uM
[3] = target: Tyrosine-protein kinase Yes (Homo sapiens) (UniProt P07947); experiment: Inhibition of YES (unknown origin) at 1 uM
[4] = target: Protein-tyrosine kinase 6 (Homo sapiens) (UniProt Q13882); experiment: Inhibition of BRK (unknown origin) at 1 uM
[5] = target: Dual specificity mitogen-activated protein kinase kinase 1 (Homo sapiens) (UniProt Q02750); experiment: Inhibition of MEK1 (unknown origin) at 1 uM
Chain of Dual specificity mitogen-activated protein kinase kinase 1 (Homo sapiens) (Q02750 whole entry): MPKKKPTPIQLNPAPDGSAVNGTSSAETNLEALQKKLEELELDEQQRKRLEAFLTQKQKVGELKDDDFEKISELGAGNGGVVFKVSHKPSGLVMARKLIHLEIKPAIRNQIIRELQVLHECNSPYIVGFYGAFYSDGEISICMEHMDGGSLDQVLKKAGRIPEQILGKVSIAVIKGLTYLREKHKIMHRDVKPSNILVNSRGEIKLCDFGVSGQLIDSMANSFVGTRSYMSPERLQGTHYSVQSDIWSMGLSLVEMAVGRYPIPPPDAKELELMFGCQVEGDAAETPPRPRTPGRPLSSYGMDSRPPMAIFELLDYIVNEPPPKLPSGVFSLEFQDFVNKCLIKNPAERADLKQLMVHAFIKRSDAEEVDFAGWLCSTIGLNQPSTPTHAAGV

[6] = target: NT-3 growth factor receptor (Homo sapiens) (UniProt Q16288); experiment: Inhibition of TRKC (unknown origin) at 1 uM
[7] = target: Aurora kinase A (Homo sapiens) (UniProt O14965); experiment: Inhibition of aurora A (unknown origin) at 1 uM
[8] = target: Proto-oncogene tyrosine-protein kinase ROS (Homo sapiens) (UniProt P08922); experiment: Inhibition of ROS (unknown origin) at 1 uM
[9] = target: Ribosomal protein S6 kinase beta-1 (Homo sapiens) (UniProt P23443); experiment: Inhibition of p70S6K (unknown origin) at 1 uM
[10] = target: Vascular endothelial growth factor receptor 2 (Homo sapiens) (UniProt P35968); experiment: Inhibition of VEGFR2 (unknown origin) at 1 uM
Chain of Vascular endothelial growth factor receptor 2 (Homo sapiens) (P35968 whole entry): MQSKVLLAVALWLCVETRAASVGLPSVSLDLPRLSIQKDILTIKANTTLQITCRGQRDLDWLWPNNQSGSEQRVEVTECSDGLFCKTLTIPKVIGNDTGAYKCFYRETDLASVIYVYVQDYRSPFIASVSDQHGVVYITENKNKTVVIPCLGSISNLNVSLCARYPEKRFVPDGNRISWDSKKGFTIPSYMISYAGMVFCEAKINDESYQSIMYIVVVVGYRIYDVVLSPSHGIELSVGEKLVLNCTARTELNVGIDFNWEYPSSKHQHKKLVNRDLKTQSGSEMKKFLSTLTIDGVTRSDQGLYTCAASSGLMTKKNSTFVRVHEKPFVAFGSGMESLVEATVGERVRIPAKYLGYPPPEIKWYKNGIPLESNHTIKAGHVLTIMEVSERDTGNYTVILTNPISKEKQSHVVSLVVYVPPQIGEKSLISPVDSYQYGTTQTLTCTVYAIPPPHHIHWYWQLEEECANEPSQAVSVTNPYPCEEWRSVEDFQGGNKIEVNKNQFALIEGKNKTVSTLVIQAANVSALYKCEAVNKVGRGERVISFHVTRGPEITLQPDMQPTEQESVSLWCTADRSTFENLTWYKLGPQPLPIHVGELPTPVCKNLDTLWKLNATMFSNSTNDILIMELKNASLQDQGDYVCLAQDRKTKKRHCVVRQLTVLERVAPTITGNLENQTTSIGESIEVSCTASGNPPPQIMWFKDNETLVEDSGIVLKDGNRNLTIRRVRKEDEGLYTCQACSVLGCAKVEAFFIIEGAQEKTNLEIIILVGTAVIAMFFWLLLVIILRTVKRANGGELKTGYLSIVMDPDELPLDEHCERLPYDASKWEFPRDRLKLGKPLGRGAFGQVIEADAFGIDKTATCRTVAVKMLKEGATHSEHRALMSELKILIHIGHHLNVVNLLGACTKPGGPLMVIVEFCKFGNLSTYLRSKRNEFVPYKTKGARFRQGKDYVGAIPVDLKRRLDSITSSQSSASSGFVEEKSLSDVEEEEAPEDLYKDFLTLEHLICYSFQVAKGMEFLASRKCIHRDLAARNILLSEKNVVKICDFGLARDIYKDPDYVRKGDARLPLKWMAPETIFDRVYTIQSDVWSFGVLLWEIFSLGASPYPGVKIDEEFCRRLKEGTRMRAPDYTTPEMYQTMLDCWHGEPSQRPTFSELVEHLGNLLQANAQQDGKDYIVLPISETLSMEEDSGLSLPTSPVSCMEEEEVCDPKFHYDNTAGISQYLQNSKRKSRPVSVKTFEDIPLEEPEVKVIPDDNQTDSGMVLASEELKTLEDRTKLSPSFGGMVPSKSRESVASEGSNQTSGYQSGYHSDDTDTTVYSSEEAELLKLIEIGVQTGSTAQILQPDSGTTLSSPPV

[11] = target: Receptor-type tyrosine-protein kinase FLT3 (Homo sapiens) (UniProt P36888); experiment: Inhibition of FLT3 (unknown origin) at 1 uM
Chain of Receptor-type tyrosine-protein kinase FLT3 (Homo sapiens) (P36888 whole entry): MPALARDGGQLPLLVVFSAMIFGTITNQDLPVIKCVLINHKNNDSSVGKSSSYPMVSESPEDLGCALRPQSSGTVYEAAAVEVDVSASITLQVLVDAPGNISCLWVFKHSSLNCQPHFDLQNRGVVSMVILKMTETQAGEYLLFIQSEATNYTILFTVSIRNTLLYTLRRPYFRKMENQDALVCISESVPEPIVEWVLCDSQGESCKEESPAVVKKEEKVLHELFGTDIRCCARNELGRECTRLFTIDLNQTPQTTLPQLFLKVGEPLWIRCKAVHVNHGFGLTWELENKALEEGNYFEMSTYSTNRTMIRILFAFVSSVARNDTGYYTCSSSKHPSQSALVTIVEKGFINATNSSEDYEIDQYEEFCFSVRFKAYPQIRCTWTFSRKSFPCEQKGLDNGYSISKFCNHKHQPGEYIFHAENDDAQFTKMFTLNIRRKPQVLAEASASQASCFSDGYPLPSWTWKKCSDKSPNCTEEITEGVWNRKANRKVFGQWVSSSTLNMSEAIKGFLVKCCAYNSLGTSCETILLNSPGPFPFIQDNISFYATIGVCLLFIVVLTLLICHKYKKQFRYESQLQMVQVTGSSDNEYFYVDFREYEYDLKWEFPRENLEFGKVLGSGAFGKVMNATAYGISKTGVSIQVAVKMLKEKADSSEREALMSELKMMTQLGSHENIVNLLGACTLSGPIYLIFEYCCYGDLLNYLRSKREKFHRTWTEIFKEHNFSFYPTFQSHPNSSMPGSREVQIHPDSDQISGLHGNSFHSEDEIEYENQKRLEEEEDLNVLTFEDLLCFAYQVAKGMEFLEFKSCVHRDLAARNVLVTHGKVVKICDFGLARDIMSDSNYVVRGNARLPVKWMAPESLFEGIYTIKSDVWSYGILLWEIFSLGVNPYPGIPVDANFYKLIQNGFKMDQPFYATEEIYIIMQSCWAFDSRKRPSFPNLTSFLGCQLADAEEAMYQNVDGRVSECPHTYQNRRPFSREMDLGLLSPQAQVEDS

[12] = target: Fibroblast growth factor receptor 1 (Homo sapiens) (UniProt P11362); experiment: Inhibition of FGFR1 (unknown origin) at 1 uM
Chain of Fibroblast growth factor receptor 1 (Homo sapiens) (P11362 22-822 limits assumed): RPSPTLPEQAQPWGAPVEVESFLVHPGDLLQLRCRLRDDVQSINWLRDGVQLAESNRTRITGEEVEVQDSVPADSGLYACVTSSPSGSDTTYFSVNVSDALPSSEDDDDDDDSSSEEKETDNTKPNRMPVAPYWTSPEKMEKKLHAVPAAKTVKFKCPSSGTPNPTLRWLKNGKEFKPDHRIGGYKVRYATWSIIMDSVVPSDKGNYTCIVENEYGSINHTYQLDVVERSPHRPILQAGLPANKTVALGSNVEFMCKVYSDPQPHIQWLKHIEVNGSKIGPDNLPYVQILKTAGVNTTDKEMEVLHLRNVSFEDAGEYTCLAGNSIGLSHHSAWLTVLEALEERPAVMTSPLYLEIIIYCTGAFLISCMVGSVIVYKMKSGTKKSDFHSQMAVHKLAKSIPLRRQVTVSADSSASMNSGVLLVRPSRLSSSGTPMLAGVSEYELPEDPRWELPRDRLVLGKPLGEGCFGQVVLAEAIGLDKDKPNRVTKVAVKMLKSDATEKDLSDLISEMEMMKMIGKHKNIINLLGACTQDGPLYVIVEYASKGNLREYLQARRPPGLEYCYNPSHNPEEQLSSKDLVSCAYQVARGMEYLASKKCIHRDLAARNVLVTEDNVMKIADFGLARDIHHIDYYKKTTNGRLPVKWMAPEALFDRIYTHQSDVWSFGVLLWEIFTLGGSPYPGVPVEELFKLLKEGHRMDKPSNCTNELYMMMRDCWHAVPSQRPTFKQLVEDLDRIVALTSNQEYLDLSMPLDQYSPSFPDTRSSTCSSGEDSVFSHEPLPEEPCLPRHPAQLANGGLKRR

[13] = target: T1, TRAF2 and NCK-interacting protein kinase (Homo sapiens, UniProt Q9UKE5); experiment: Ratio of IC50 for TNIK-mediated TCF4/[…] transcription in human HCT116 cells to IC50 for TNIK (unknown origin); format: cell-based; conditions: HCT-116
[14] = target: Cyclin-dependent kinase 1/cyclin B1 (Homo sapiens) (UniProt P06493+P14635); experiment: Inhibition of CDK1/cyclin B (unknown origin) at 1 uM; format: protein-complex assay
[15] = target: Protein kinase C theta type (Homo sapiens) (UniProt Q04759); experiment: Inhibition of PKCtheta (unknown origin) at 1 uM
[16] = target: Homeodomain-interacting protein kinase 1 (Homo sapiens) (UniProt Q86Z02); experiment: Inhibition of HIPK1 (unknown origin) at 1 uM
[17] = target: Cyclin-dependent kinase 2/cyclin A (Homo sapiens) (UniProt P24941+P20248+P78396); experiment: Inhibition of CDK2/cyclin A (unknown origin) at 1 uM; format: protein-complex assay
[18] = target: Tyrosine-protein kinase Fyn (Homo sapiens) (UniProt P06241); experiment: Inhibition of FYN (unknown origin) at 1 uM
[19] = target: Ephrin type-B receptor 1 (Homo sapiens) (UniProt P54762); experiment: Inhibition of EPHB1 (unknown origin) at 1 uM
[20] = target: Serine/threonine-protein kinase PAK 4 (Homo sapiens) (UniProt O96013); experiment: Inhibition of PAK4 (unknown origin) at 1 uM
[21] = target: Mast/stem cell growth factor receptor Kit (Homo sapiens) (UniProt P10721); experiment: Inhibition of c-KIT (unknown origin) at 1 uM
[22] = target: BDNF/NT-3 growth factors receptor (Homo sapiens) (UniProt Q16620); experiment: Inhibition of TRKB (unknown origin) at 1 uM
[23] = target: Casein kinase II subunit alpha (Homo sapiens) (UniProt P68400); experiment: Inhibition of CK2alpha (unknown origin) at 1 uM
[24] = target: Death-associated protein kinase 1 (Homo sapiens) (UniProt P53355); experiment: Inhibition of DAPK1 (unknown origin) at 1 uM
[25] = target: Muscle, skeletal receptor tyrosine-protein kinase (Homo sapiens) (UniProt O15146); experiment: Inhibition of MUSK (unknown origin) at 1 uM
[26] = Apparent permeability across basolateral to apical side in human Caco2 cells; format: ADME, cell-based; conditions: Caco-2
[27] = target: Cyclin-dependent kinase 4/cyclin D1 (Homo sapiens) (UniProt P11802+P24385); experiment: Inhibition of CDK4/cyclin D1 (unknown origin) at 1 uM; format: protein-complex assay
[28] = target: T1, TRAF2 and NCK-interacting protein kinase; experiment: Inhibition of TNIK-mediated TCF4/[…] transcription in human HCT116 cells by beta-lactamase reporter gene assay; format: cell-based, HCT-116

Chain of Serine/threonine-protein kinase Nek1 (Homo sapiens) (Q96PY6 whole entry): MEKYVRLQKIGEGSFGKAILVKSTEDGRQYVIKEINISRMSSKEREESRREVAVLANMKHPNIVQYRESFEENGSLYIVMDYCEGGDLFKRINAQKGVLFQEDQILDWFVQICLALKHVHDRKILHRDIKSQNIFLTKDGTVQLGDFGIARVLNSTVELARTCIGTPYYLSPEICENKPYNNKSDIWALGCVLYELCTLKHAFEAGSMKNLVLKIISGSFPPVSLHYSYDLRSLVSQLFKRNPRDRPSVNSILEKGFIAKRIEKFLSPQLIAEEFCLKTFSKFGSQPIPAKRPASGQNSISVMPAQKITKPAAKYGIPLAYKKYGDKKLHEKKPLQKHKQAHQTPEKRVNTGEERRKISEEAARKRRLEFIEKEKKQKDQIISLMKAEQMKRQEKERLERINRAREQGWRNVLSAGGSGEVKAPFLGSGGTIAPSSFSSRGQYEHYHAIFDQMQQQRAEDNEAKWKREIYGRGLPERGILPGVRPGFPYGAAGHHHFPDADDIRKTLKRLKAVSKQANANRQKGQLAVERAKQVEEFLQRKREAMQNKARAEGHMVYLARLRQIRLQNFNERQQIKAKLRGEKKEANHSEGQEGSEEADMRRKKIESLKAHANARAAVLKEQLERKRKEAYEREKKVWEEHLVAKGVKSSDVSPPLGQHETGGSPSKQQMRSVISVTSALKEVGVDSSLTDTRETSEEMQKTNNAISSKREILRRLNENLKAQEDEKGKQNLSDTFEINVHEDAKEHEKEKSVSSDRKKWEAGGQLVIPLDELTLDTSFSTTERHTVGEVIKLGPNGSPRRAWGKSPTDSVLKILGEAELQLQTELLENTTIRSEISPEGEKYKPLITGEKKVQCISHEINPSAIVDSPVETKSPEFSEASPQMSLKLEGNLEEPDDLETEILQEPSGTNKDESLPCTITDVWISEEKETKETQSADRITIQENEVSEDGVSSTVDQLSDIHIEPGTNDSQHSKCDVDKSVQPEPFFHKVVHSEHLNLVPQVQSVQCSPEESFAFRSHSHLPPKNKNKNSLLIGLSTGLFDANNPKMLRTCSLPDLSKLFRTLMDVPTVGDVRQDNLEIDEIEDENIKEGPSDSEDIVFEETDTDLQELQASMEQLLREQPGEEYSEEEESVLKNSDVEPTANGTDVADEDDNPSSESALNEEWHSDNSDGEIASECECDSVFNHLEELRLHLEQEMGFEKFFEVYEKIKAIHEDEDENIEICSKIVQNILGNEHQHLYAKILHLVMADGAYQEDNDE

- inhibition [1]: > 80%
- inhibition [2]: > 80%
- inhibition [3]: > 80%
- inhibition [4]: > 80%
- inhibition [5]: > 80%
- inhibition [6]: > 95%
- inhibition [7]: > 95%
- inhibition [8]: > 95%
- inhibition [9]: > 95%
- inhibition [10]: > 95%
- inhibition [11]: > 95%
- inhibition [12]: > 95%
- Ratio IC50 [13]: 5.4
- inhibition [14]: > 50%
- inhibition [15]: 50%
- inhibition [16]: 50%
- inhibition [17]: > 50%
- inhibition [18]: 50%
- inhibition [19]: 50%
- inhibition [20]: 50%
- inhibition [21]: > 80%
- inhibition [22]: > 80%
- inhibition [23]: > 80%
- inhibition [25]: > 80%
- Papp B→A [26]: 7.7 ×10⁻⁶ cm/s
- inhibition [27]: > 80%
- IC50 [28]: 350 nM
Compound: COc1cc(Nc2ncc(Cl)c(-c3cccc(CC#N)c3)n2)ccc1N1CCN(C)CC1
- inhibition [24]: > 80%
